Molecular target: T1, hTAS1R1 S172A/rTAS1R3 (UniProt Q7RTX1+Q923K1, S172A)
T1 construct: UniProtKB number Q7RTX1–1); The cDNA coding region of rTAS1R3 was synthesized with optimized-codon usage for human expression; expressed in transfected cells; host or cells: HEK293T/17
T1 sequence (Q7RTX1 21-841 S172A): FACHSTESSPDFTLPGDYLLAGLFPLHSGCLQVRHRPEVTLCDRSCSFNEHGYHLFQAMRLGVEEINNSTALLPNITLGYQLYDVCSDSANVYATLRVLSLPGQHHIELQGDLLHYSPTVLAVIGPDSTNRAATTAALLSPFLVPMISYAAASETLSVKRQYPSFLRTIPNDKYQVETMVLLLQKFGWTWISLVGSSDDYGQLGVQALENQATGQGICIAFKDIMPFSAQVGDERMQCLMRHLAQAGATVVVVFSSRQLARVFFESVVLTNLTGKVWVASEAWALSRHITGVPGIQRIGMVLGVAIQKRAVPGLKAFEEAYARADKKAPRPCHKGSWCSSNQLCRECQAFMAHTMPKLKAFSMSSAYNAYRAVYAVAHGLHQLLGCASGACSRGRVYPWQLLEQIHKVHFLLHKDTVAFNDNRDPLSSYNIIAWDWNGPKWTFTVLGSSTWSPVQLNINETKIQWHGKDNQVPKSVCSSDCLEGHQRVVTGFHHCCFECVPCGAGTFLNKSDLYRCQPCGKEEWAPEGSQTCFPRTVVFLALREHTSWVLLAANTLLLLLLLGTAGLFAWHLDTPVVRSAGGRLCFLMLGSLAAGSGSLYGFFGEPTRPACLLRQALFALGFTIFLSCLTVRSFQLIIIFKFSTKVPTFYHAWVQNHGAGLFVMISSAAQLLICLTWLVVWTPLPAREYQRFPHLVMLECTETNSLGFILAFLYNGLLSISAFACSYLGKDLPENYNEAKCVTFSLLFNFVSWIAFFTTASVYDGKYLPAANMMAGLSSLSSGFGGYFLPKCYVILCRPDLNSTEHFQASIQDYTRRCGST
T1 sequence (Q923K1 21-858): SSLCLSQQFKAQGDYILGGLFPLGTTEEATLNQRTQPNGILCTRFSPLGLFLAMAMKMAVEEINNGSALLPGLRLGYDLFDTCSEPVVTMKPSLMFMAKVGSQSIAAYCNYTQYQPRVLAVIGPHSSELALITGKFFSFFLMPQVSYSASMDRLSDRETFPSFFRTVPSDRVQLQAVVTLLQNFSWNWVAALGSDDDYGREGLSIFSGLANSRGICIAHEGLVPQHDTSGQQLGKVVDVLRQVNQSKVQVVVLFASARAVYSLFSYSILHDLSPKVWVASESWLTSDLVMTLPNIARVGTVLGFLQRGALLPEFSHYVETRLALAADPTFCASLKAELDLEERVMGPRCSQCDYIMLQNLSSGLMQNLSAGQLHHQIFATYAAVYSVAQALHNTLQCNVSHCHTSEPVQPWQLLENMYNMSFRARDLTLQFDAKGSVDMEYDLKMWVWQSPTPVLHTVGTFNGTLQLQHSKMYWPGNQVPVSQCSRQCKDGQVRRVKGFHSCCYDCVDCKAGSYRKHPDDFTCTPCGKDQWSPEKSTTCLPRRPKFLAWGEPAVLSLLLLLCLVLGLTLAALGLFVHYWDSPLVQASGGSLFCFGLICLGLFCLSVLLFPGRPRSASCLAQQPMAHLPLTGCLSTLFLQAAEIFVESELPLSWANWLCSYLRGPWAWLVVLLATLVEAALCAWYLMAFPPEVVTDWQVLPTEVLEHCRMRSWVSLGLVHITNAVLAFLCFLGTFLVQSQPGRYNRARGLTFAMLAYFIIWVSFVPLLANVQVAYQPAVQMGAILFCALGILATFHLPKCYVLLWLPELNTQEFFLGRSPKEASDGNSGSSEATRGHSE
Assay: Calcium assay, hTAS1R1 mutant co-expressed with rTAS1R3
Type: cell-based, human, rat
Settings: for response to the agonist alone, vs WT: S172A
Excerpt: Chimeric Gα proteins, such as Gα16Gust44, Gα16Gi3 or Gα15i2, are widely used in the functional expression of TAS1R receptors ([Backes et al., 2015]; [Suess et al., 2015]; [Toda et al., 2021], [Toda et al., 2013], [Toda et al., 2018]; [Zhang et al., 2008]). Chimeric Gα15i2 (([Toda et al., 2013]), Supplementary data) was generated by replacing the last five residues of the C-terminal tail of rat Gα15i2 (EINLL) (UniProt number G3V6N8; https://www.uniprot.org/uniprot/) with the counterpart sequence from human GNAI2 (DCGLF) (UniProt number P04899-1) and cloning into the pcDNA3.1/Hygro vector (Invitrogen, Thermo Fisher Scientific, Illkirch, France) between the HindIII and NotI restriction sites, resulting in the plasmid pcDNA3.1-Gα15i2. Chimeric Gα16Gust44 construct have already been reported ([Raliou et al., 2011]). Briefly, Gα16Gust44 was generated by replacing the C-terminal of Gα16 with the C-terminal 44 residues of gustducin. As previously described, hTAS1R1 was amplified from human fungiform papillae cDNA and cloned and inserted into pcDNA3 (Invitrogen), generating pcDNA3-TAS1R1-WT (wild-type) ([Raliou et al., 2011]). […] The cDNA coding region of rTAS1R3 was synthesized with optimized-codon usage for human expression (Genewiz) and was cloned and inserted into the mammalian pcDNA4/myc-HisA (Invitrogen) expression vector between the EcoRI and NotI restriction sites, resulting in the plasmid pcDNA4-rTAS1R3. […] The sequence integrity of all the plasmid constructs was verified via automated DNA sequencing (Genewiz).
The hTAS1R1 mutants were co-expressed with the rTAS1R3 subunit in HEK293 cells. […] As a control, the functionality of the mutated receptors was checked after stimulation with S807 (Fig. S8), which interacts with TAS1R1-TMD ([Zhang et al., 2008]).

Compound | EC50 | response to the agonist alone, vs WT
N[C@@H](CCC(=O)N[C@@H](CS)C(=O)NCC(=O)O)C(=O)O [GSH, γ-L-glutamyl-L-cysteinyl-glycine] | > 30 mM | fully abolished
CCCC(CCC)NC(=O)c1ccc2c(c1)OCO2 [S807, N-(heptan-4-yl)benzo[d][1,3]dioxole-5-carboxamide, reference compound] |  | strongly affected
N[C@@H](CCC(=O)O)C(=O)O [L-Glu, L-glutamic acid, reference compound] |  | completely suppressed
